From patent US20070254871A1, “Compounds for the Treatment of Inflammation of the Central Nervous System” (Neurotec Pharma, S.L., priority 2004, published 2007) come the findings set out here.

The assay deals with microglial reaction in rat hippocampal lesion. Put plainly: Microglial reaction in rat hippocampal lesion (stereotaxic AMPA injection, IB4 histochemistry). It is filed as in vivo. To be noted: for Density of reactive microcytes / Hippocampal microgliosis area: n=4, mean±S.E.M. How it is done:
This model relies on the acute stereotaxic over-activation of rat glutamate hippocampal receptors that results in a neurodegenerative process characterized by a neuronal loss with astroglial and microglial reactions (cf. F. Bernal et al., Hippocampus 2000, vol. 10, pp. 296-304; F. Bernal et al., Exp. Neurol. 2000, vol. 161, pp. 686-95). In this neurodegenerative model rats were anaesthetized with equithesin (a mixture of chloral hydrate and pentobarbital sodium; 0.3 ml/100 g body weight, i.p.) and placed on a Kopf stereotaxic frame with the incisor bar set at −3.3 mm. Intracerebral injections aimed at the dorsal hippocampus were performed at 3.3 mm caudal to bregma, 2.2 mm lateral and 2.9 mm ventral from dura (cf. G. Paxinos et al., “The rat brain in stereotaxic coordinates”, Sydney: Academic Press 1986). A volume of 0.5 μl was injected over a period of 5 min.
Four different groups of rats received two injections in a 2-hour interval as follows: a) sham rats (n=4) received two injections of PBS; b) AMPA rats (α-amino-3-hydroxy-5-methylisoxazole-4-propionic acid) (n=4) received the first injection of 5.4 mM AMPA and the second of PBS; c) diazoxide rats (n=4) received two injections of 50 μM diazoxide; d) AMPA+diazo rats (n=4) received 5.4 mM AMPA+50 μM diazoxide in the first injection and 50 μM diazoxide in the second injection. All rats were sacrificed 24 hours after the lesion.
Rats were transcardially perfused with 300 ml of 0.1 M phosphate buffer (PB, pH 7.4) followed by 300 ml ice-cold fixative (flow rate 20 ml/min). The fixative consisted of 4% (w/v) paraformaldehyde in PB. Brains were removed, crioprotected with 15% (w/v) sucrose in PB and then, frozen with dry ice. Cryostat sections (12 μm) were obtained at the level of dorsal hippocampus (−3.3 mm to bregma). Isolectine B4 (IB4) histochemistry was performed to identify the microglial reaction (cf. C. A. Colton et al., J. Histochem. Cytochem. 1992, vol. 40, pp. 505-12).
Microgliosis area evaluation was performed on IB4 positive stained sections, which were analyzed using a computer-assisted image analysis system (OPTIMAS®, BioScan Inc., Washington, USA). IB4-stained reactive microcytes were counted at ×100 magnification using an ocular grid mounted on a transmission light microscope (Axiolab, Zeiss, Göttingen, Germany). One-way ANOVA was used to compare differences between groups, followed by the LSD post-hoc test. Results were expressed as mean±S.E.M. All analyses were performed with the computer program STATGRAPHICS (STSC Inc., Rockville, Md., USA).

The mark [1] stands for this setting: AMPA+diazo group: 5.4 mM AMPA+50 μM diazoxide in first injection, 50 μM diazoxide in second, 24 hours.
Where [2] appears, read: substance alone injected into dorsal hippocampus (diazoxide: two injections of 50 μM; AMPA: 5.4 mM then PBS), 24 hours.
Where [3] appears, read: substance alone injected into dorsal hippocampus (diazoxide: two injections of 50 μM; AMPA: 5.4 mM then PBS), sacrificed 24 hours after the lesion.

Each structure is given as a SMILES string.

In the case of `CC1=NS(=O)(=O)c2cc(Cl)ccc2N1` [diazoxide], under “AMPA+diazo group versus AMPA group, 24 hours”, the “Microgliosis area as % of the AMPA group” value is listed as 37%. Further, the “Density of reactive microcytes” value under setting [1] is listed as 603±56 cells/mm^2 and the “Density of reactive microcytes” value under setting [2] was determined as 555±91 cells/mm^2. Moreover, the Hippocampal microgliosis area under setting [1] is 0.16±0.02 mm^2 and the Hippocampal microgliosis area under setting [3] is on record as 0.19±0.03 mm^2. Moreover, the “Effect on microglial activation (in words)” value (diazoxide-treated animals compared with AMPA-treated animals) is given as “reduces microglial activation to sham values”.
On to `Cc1onc(O)c1CC(N)C(=O)O` (stereo not drawn) [AMPA, α-amino-3-hydroxy-5-methylisoxazole-4-propionic acid], for which, under setting [2], the “Density of reactive microcytes” value turned out to be 645±59 cells/mm^2. Besides, the Hippocampal microgliosis area under setting [3] is listed as 0.44±0.07 mm^2.
